Source: paper PMC11062894, “Protein-based bandpass filters for controlling cellular signaling with chemical inputs” (Nature Chemical Biology, 2023)
“And” between values parts separate entries of the source, which are not always exact repeats. Equal values may be shown once.

Columns and labels:
BclXL–LD3 interaction = BclXL–LD3 interaction (Homo sapiens, UniProt Q07817); assay: SPR drug competition assay, BclXL–LD3; type: binding; conditions: for Normalization of Response units / Response units: BclXL, Supp Fig 2a
[1] = molecular target: GEMS with the dual-drug-controlled (A-1155463, venetoclax) switch (Bcl2 and BclXL–LD3) in HEK293T cells (Homo sapiens, UniProt P10415); assay: GEMS SEAP reporter assay, dual-drug-controlled (A-1155463, venetoclax) switch; type: cell-based; conditions: for SEAP (U/L): Figure 2c, ON-phase
Excerpt: In the first step, we sought to construct a dual-drug-controlled switch to test whether the ON and OFF switching processes can be combined in our receptor architecture. We used Bcl2 and BclXL as the orthogonal drug receptors, which interact with the LD3 protein and respond to their own specific inhibitors. In such a setting, the dual-drug-controlled switch will turn ON in response to one drug and OFF in response to the other, thus mimicking bandpass filtering behavior (Supplementary Fig. 1d). […] To test the switch behavior, we employed the generalizable extracellular molecule sensor (GEMS) platform, which senses extracellular molecules and thus regulates cell surface signaling pathways (Fig. 2a). This receptor platform is based on a mutated EpoR extracellular and transmembrane domain fused to an IL-6RB intracellular domain. Dimerization of EpoR extracellular domains is controlled by N-terminally fused inducible dimerization domains, which drive IL-6RB activation and STAT3 signaling. The Bcl2 and BclXL–LD3 complexes were fused to the extracellular EpoR domains. […] The dimerization of Bcl2 and LD3 causes EpoR extracellular domain dimerization and triggers JAK/STAT3 signaling. Active STAT3 drives the expression of a reporter protein (secreted alkaline phosphatase (SEAP)) controlled by a STAT3-dependent promoter.
(§1) HEK293T cells were seeded in a 96-well plate 24 h before transfection. The transfection mix in each well consisted of 3 ng of constitutive human CMV promoter driven mammalian STAT3 expression vector (PhCMV-STAT3-pA), 30 ng of STAT3-induced reporter expression (OStat3-PhCMVmin-SEAP-pA) and 50 ng of expression vectors for each GEMS receptor chain (PSV40-IgK-(drughigh receptor)-EpoRm-IL-6RBm-pA and PSV40-IgK-(druglow receptor-GGGGSX3-LD3)-EpoRm-IL-6RBm-pA). For the specific drughigh receptor and druglow receptor used in the different cellular assays, they are indicated as wild type or with mutations. Then, plasmid DNA was mixed with 50 μl opti-MEM (Thermo Fisher) and 600 ng of polyethyleneimine (Polysciences, catalog no. 24765-1). For drug treatment experiments, drugs were added 12 h post-transfection and incubated with cells for 24 h before the SEAP reporter detection assay.
(§2) SEAP activity (U l^−1) in cell culture supernatants was quantified by kinetic measurements at 405 nm (1 minute per measurement for 30 cycles) of absorbance increase due to phosphatase-mediated hydrolysis of para-nitrophenyl phosphate (pNPP).
Binding affinities of SPR drug competition assays were calculated using three-parameter nonlinear regression in GraphPad Prism (v.8.3.0). Representative data of cell assays are presented as individual values and mean values (bars). n = 3 refers to biological replicates. All IC50 or EC50 values of cell assays reported were calculated using four-parameter nonlinear regression ± s.d. Bandpass features of cutoff concentrations and Bandwidth90% were estimated based on the curve fitted using bell-shaped curve nonlinear regression in GraphPad Prism (v.8.3.0).

Bcl2–LD3 interaction = Bcl2–LD3 interaction (Homo sapiens, UniProt P10415); assay: SPR drug competition assay, Bcl2–LD3; type: binding; conditions: for Normalization of Response units / Response units: Bcl2, Supp Fig 2a
Description: Drug IC50 values for disrupting heterodimers were measured on a Biacore 8K device. A 5 µM portion of analyte was mixed with 10 µM of BclXL or Bcl2 inhibitors according to the analyte. The mixtures of analyte and drug were injected onto the LD3 immobilized channel.
(§3) Binding affinities of SPR drug competition assays were calculated using three-parameter nonlinear regression in GraphPad Prism (v.8.3.0). Representative data of cell assays are presented as individual values and mean values (bars). n = 3 refers to biological replicates. All IC50 or EC50 values of cell assays reported were calculated using four-parameter nonlinear regression ± s.d. Bandpass features of cutoff concentrations and Bandwidth90% were estimated based on the curve fitted using bell-shaped curve nonlinear regression in GraphPad Prism (v.8.3.0). […]
This assay is designed to test if the drug of interest can specifically disrupt the
interaction between LD3 and BclXL/Bcl2. The drug-receptors (Bcl2, BclXL) are immobilized on the
different channels of the sensor chip, then the binding sites are saturated with LD3. […]

[2] = molecular target: GEMS with the dual-drug-controlled (venetoclax, A-1155463) switch (BclXL and Bcl2–LD3) in HEK293T cells (Homo sapiens, UniProt P10415); assay: GEMS SEAP reporter assay, dual-drug-controlled (venetoclax, A-1155463) switch; type: cell-based; conditions: for SEAP (U/L): Figure 2f, OFF-phase
Description: as §1, §2, §3

Bcl2 = conditions: cited from earlier work
[3] = Independent repeat, A-1155463 1 nM
[4] = Independent repeat, A-1155463 10 nM
[5] = Independent repeat, A-1155463 31.6 nM
[6] = Independent repeat, A-1155463 100 nM
[7] = Representative, A-1155463 10 nM
[8] = Representative, A-1155463 31.6 nM
[9] = Representative, A-1155463 100 nM
[10] = Representative, A-1155463 316 nM

BclXL–LD3 interaction, sequence (Q07817 1-209 limits assumed): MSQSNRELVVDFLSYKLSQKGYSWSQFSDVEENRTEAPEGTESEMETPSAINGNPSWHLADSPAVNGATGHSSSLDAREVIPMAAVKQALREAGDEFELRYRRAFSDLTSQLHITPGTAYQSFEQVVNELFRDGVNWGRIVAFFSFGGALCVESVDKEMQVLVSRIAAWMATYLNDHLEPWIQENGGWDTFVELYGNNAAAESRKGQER
GEMS with the dual-drug-controlled (venetoclax, A-1155463) switch (BclXL and Bcl2–LD3) in HEK293T cells, sequence (P10415 whole entry): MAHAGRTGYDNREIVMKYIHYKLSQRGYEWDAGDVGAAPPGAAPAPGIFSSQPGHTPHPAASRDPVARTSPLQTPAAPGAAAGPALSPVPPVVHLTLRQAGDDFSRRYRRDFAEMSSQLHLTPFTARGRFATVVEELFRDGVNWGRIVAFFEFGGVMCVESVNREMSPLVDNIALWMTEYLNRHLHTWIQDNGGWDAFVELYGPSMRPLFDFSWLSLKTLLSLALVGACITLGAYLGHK
GEMS with the dual-drug-controlled (venetoclax, A-1155463) switch (BclXL and Bcl2–LD3) in HEK293T cells, sequence (Q07817 whole entry, further chain): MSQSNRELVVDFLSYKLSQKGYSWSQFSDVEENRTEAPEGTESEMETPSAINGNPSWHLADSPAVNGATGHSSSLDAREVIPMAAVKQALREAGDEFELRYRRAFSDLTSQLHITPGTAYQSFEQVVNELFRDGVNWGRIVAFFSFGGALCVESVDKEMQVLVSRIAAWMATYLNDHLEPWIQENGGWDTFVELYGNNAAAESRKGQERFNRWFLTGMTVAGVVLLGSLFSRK
GEMS with the dual-drug-controlled (A-1155463, venetoclax) switch (Bcl2 and BclXL–LD3) in HEK293T cells, sequence (Q07817 whole entry): as the sequence (Q07817 whole entry, further chain) above
GEMS with the dual-drug-controlled (A-1155463, venetoclax) switch (Bcl2 and BclXL–LD3) in HEK293T cells, sequence (P10415 whole entry): as the sequence (P10415 whole entry) above
Bcl2–LD3 interaction, sequence (P10415 1-207 limits assumed): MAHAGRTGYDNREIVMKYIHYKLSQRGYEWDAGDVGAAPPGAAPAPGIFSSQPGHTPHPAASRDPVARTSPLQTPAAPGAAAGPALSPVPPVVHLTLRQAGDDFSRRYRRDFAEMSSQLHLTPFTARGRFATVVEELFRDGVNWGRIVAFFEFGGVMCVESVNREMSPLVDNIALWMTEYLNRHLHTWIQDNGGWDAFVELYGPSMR

CN(C)CC#Cc1ccc(OCCCc2sc(N3CCc4cccc(C(=O)Nc5nc6ccccc6s5)c4C3)nc2C(=O)O)c(F)c1 [A-1155463]
Normalization of Response units (BclXL–LD3 interaction; A11 0.01): 102.002
Response units (BclXL–LD3 interaction; A11 0.01): 136.071
Normalization of Response units (BclXL–LD3 interaction; A11 0.1): 97.9313
Response units (BclXL–LD3 interaction; A11 0.1): 130.64
Normalization of Response units (BclXL–LD3 interaction; A11 1): 94.098
Response units (BclXL–LD3 interaction; A11 1): 125.527
Normalization of Response units (BclXL–LD3 interaction; A11 10): 84.7556
Response units (BclXL–LD3 interaction; A11 10): 113.064
Normalization of Response units (BclXL–LD3 interaction; A11 100): 61.7671
Response units (BclXL–LD3 interaction; A11 100): 82.3973
Normalization of Response units (BclXL–LD3 interaction; A11 1000): 27.7573
Response units (BclXL–LD3 interaction; A11 1000): 37.0282
Normalization of Response units (BclXL–LD3 interaction; A11 10000): 14.6141
Response units (BclXL–LD3 interaction; A11 10000): 19.4952
IC50 (BclXL–LD3 interaction; prevents BclXL from binding to LD3): 106 nM
EC50 ([1]; A-1155463 dose response, SEAP, read-out: EC50 of the ON phase): 23 nM
SEAP (U/L) [1, 3]: 42.7182 U/L and 41.8919 U/L and 38.4512 U/L
SEAP (U/L) [1, 4]: 156.072 U/L and 146.503 U/L and 188.411 U/L
SEAP (U/L) [1, 5]: 331.126 U/L and 300.096 U/L and 322.732 U/L
SEAP (U/L) [1, 6]: 407.571 U/L and 388.702 U/L and 469.003 U/L
SEAP (U/L) ([1]; Representative, A-1155463 1 nM): 15.8426 U/L and 13.5232 U/L and 13.6294 U/L
SEAP (U/L) [1, 7]: 26.67 U/L and 26.9995 U/L and 28.8916 U/L
SEAP (U/L) [1, 8]: 53.4598 U/L and 53.7585 U/L and 50.2237 U/L
SEAP (U/L) [1, 9]: 77.0863 U/L and 99.712 U/L and 86.8586 U/L
SEAP (U/L) [1, 10]: 74.2135 U/L
Normalization of Response units (Bcl2–LD3 interaction; A11 0.01): 92.1843
Response units (Bcl2–LD3 interaction; A11 0.01): 21.2577
Normalization of Response units (Bcl2–LD3 interaction; A11 0.1): 80.8291
Response units (Bcl2–LD3 interaction; A11 0.1): 18.6392
Normalization of Response units (Bcl2–LD3 interaction; A11 1): 73.8912
Response units (Bcl2–LD3 interaction; A11 1): 17.0393
Normalization of Response units (Bcl2–LD3 interaction; A11 10): 65.6037
Response units (Bcl2–LD3 interaction; A11 10): 15.1282
Normalization of Response units (Bcl2–LD3 interaction; A11 100): 63.1974
Response units (Bcl2–LD3 interaction; A11 100): 14.5733
Normalization of Response units (Bcl2–LD3 interaction; A11 1000): 71.7979
Response units (Bcl2–LD3 interaction; A11 1000): 16.5566
Normalization of Response units (Bcl2–LD3 interaction; A11 10000): 76.7051
Response units (Bcl2–LD3 interaction; A11 10000): 17.6882
effect on the Bcl2–LD3 interaction (Bcl2–LD3 interaction; SPR drug competition): does not affect
IC50 ([2]; A-1155463-controlled OFF phase): 103 nM
decrease in the OFF phase ([2]; Fig 2e): close to tenfold
SEAP (U/L) ([2]; Independent repeat2, A-1155463 0.001 nM): 136.822 U/L and 169.801 U/L and 176.875 U/L
SEAP (U/L) ([2]; Independent repeat2, A-1155463 0.1 nM): 103.12 U/L and 204.542 U/L and 189.519 U/L
SEAP (U/L) ([2]; Independent repeat2, A-1155463 1 nM): 92.9798 U/L and 167.805 U/L and 150.91 U/L
SEAP (U/L) ([2]; Independent repeat2, A-1155463 10 nM): 77.7029 U/L and 130.847 U/L and 121.179 U/L
SEAP (U/L) ([2]; Independent repeat2, A-1155463 31.6 nM): 58.2163 U/L and 85.6507 U/L and 74.3645 U/L
SEAP (U/L) ([2]; Independent repeat2, A-1155463 100 nM): 37.6382 U/L and 39.3259 U/L and 34.7513 U/L
SEAP (U/L) ([2]; Independent repeat2, A-1155463 316 nM): 10.089 U/L and 12.1866 U/L and 9.268 U/L
SEAP (U/L) ([2]; Independent repeat2, A-1155463 1000 nM): 8.119 U/L and 8.577 U/L and 7.014 U/L
SEAP (U/L) ([2]; Independent repeat, A-1155463 0.001 nM): 544.306 U/L and 608.147 U/L and 640.878 U/L
SEAP (U/L) ([2]; Independent repeat, A-1155463 0.01 nM): 596.894 U/L and 605.557 U/L and 647.084 U/L
SEAP (U/L) ([2]; Independent repeat, A-1155463 0.1 nM): 460.121 U/L and 563.478 U/L and 550.17 U/L
SEAP (U/L) [2, 3]: 534.525 U/L and 587.537 U/L and 614.263 U/L
SEAP (U/L) [2, 4]: 528.461 U/L and 563.236 U/L and 515.428 U/L
SEAP (U/L) [2, 5]: 441.716 U/L and 544.633 U/L and 570.455 U/L
SEAP (U/L) [2, 6]: 308.86 U/L and 496.735 U/L and 439.283 U/L
SEAP (U/L) ([2]; Independent repeat, A-1155463 316 nM): 344.351 U/L and 390.049 U/L and 370.506 U/L
SEAP (U/L) ([2]; Representative, A-1155463 0.001 nM): 452.056 U/L and 640.781 U/L and 545.972 U/L
SEAP (U/L) ([2]; Representative, A-1155463 0.01 nM): 482.724 U/L and 651.317 U/L and 591.102 U/L
SEAP (U/L) ([2]; Representative, A-1155463 0.1 nM): 443.461 U/L and 562.309 U/L and 475.562 U/L
SEAP (U/L) ([2]; Representative, A-1155463 1 nM): 415.408 U/L and 516.033 U/L and 492.483 U/L
SEAP (U/L) [2, 7]: 401.724 U/L and 506.387 U/L and 481.044 U/L
SEAP (U/L) [2, 8]: 379.199 U/L and 421.639 U/L and 391.615 U/L
SEAP (U/L) [2, 9]: 206.108 U/L and 261.394 U/L and 267.779 U/L
SEAP (U/L) [2, 10]: 72.1001 U/L and 78.6193 U/L and 80.8054 U/L
SEAP (U/L) ([2]; Representative, A-1155463 1000 nM): 15.1572 U/L and 16.9337 U/L and 16.4073 U/L
binding to Bcl2 weaker than to BclXL (Bcl2): more than 7,000 fold
